Like-named read-outs stand apart in the source and are kept apart here.
How the values were obtained:
Assay in all cases: HotSpot kinase profiling
Format in all cases: biochemical
TAOK1 = biological target: T1, TAOK1 (Homo sapiens, UniProt Q7L7X3)
T1 construct: purchased Reaction Biology Corp
T1 sequence (Q7L7X3 1-1001): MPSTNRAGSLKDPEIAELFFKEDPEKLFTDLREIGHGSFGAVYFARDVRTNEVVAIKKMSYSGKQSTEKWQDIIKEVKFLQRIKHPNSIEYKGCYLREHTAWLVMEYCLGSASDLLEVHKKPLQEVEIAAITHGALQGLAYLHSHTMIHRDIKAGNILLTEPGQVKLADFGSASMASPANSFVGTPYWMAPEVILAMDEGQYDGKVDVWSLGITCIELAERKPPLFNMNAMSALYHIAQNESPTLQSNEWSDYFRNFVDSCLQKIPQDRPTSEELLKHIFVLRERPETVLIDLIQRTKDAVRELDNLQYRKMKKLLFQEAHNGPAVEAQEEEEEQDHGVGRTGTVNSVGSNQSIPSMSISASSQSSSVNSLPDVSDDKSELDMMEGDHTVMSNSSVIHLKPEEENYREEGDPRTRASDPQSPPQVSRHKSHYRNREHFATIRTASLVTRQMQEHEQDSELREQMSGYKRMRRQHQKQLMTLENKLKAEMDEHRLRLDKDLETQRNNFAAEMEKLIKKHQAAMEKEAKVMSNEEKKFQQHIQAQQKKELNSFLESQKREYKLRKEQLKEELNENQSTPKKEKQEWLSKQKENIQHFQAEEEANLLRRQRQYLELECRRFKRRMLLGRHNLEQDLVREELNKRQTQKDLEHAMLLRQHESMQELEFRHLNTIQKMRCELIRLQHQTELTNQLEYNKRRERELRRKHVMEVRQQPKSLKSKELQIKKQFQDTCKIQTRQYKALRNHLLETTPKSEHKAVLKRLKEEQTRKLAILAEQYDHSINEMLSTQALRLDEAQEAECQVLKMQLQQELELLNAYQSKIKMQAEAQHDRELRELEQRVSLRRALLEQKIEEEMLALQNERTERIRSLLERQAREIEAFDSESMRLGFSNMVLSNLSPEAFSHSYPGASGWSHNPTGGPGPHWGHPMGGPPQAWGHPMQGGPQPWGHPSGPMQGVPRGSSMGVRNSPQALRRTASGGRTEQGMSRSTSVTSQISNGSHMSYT
In short: (§1)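 Radio-isotope P81 filtration format. Substrate + required cofactors in reaction buffer, kinase added, 2 h RT. Stop, wash with 0.1% phosphoric acid, detect. % inhibition vs DMSO; mean of duplicates where repeated.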

TYK1/LTK = biological target: T2, TYK1/LTK (Homo sapiens, UniProt P29376)
T2 construct: purchased Reaction Biology Corp
T2 sequence (P29376 17-864): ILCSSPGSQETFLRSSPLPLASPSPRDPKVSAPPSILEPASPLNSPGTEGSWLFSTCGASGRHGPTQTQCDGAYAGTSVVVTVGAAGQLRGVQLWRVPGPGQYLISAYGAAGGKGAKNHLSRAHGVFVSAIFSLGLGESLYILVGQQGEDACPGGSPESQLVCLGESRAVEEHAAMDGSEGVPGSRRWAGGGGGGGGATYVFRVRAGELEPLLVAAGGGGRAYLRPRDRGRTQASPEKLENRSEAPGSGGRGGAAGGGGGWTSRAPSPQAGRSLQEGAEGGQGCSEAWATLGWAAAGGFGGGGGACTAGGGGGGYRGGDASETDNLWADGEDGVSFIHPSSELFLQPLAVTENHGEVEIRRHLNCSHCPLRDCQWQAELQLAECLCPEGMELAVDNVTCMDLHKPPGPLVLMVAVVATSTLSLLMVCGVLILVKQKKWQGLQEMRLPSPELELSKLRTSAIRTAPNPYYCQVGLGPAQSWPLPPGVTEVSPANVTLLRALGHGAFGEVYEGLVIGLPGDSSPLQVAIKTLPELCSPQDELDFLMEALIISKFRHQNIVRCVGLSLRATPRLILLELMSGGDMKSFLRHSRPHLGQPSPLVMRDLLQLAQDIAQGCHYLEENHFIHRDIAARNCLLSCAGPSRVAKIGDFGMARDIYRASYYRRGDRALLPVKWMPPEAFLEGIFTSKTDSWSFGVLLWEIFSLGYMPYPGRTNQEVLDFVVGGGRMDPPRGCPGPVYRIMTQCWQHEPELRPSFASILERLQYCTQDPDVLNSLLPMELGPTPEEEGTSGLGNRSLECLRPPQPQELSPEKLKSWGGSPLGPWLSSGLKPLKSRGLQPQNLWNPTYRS
In short: as §1

ASK1/MAP3K5 = biological target: T3, ASK1/MAP3K5 (Homo sapiens, UniProt Q99683)
T3 construct: purchased Reaction Biology Corp
T3 sequence (Q99683 1-1374): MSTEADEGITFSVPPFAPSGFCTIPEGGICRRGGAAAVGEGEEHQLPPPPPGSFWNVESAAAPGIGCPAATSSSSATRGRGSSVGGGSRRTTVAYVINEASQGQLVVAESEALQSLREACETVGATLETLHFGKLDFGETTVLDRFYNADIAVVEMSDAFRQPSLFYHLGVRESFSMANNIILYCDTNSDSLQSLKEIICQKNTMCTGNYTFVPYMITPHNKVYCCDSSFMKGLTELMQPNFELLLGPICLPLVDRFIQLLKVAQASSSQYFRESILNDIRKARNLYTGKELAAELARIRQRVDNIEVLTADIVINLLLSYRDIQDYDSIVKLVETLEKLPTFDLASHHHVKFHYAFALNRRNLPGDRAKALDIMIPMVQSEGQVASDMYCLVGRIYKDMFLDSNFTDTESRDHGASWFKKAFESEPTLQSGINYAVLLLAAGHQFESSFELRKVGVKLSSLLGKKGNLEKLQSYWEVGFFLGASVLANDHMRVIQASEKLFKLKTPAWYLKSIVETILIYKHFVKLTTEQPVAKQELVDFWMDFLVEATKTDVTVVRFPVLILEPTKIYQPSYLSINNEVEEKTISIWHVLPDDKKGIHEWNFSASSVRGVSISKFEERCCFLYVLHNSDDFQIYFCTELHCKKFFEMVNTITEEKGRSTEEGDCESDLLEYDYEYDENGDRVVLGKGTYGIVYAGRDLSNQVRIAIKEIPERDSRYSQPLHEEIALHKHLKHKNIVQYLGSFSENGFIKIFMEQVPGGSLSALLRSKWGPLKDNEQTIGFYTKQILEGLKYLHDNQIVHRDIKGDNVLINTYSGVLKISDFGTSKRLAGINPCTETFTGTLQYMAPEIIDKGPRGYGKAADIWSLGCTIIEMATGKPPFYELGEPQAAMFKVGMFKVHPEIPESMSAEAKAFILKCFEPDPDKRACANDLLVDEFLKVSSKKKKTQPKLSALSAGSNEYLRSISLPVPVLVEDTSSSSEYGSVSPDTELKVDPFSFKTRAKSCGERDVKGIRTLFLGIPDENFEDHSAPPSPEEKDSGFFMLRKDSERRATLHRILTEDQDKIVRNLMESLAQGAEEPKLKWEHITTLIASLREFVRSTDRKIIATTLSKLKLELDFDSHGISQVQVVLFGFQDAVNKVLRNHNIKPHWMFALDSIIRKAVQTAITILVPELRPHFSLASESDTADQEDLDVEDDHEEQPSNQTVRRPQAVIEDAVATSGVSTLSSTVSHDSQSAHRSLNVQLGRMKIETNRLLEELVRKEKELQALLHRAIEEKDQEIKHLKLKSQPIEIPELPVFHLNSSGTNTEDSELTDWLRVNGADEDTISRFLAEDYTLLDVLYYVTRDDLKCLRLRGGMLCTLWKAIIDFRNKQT
In short: as §1

[1] = read-out: % Enzyme Activity (relative to DMSO controls) Run 1
[2] = read-out: % Enzyme Activity (relative to DMSO controls) Run 2

C=CC(=O)Nc1cccc(Nc2nc(Nc3ccc(OCCOC)c(F)c3)ncc2F)c1 [Compound 2]
inhibition at 3 µM (TAOK1): 1.63%
remaining activity at 3 µM (TAOK1; [1]): 100%
remaining activity at 3 µM (TAOK1; [2]): 96.2%
inhibition at 3 µM (TYK1/LTK): 23.2%
remaining activity at 3 µM (TYK1/LTK; [1]): 77.8%
remaining activity at 3 µM (TYK1/LTK; [2]): 75.8%
inhibition at 3 µM (ASK1/MAP3K5): -1.62%
remaining activity at 3 µM (ASK1/MAP3K5; [1]): 101%
remaining activity at 3 µM (ASK1/MAP3K5; [2]): 102%

From patent US9492471B2, “Methods of treating a disease or disorder associated with Bruton'S Tyrosine Kinase” (Celgene Avilomics Research, Inc., priority 2013, dated 2016)
